Columns and labels:
[1] = tested on: GFAP+ cells / Camkll+ cells in cortex and hippocampus; assay: GFAP and Camkll immunostaining of TLE mouse brain; assay type: in vivo, C57BL/6J male mice; details: right intrahippocampal KA-injection; n=10 sections from N=4 mice
Procedure: For immunohistochemistry, mice are deeply anaesthetized by an overdose of pentobarbital sodium. Mice are transcardially perfused with 30 mL cold phosphate-buffered saline (PBS) and 30 mL 4% (w/v) paraformaldehyde (4% PFA). Brain tissue is removed, post-fixed with 4% PFA, and treated with 30% (w/v) sucrose in 4% PFA at 4° C. for 2˜3 days. Brain tissue is sectioned on a cryostat (30 μm for standard staining and 10 μm for Super-Resolution imaging) (Leica CM3500, Germany) and preserved with antifreeze buffer (20% (v/v) glycerine and 30% (v/v) ethylene glycol diluted in PBS) at −20° C. For immunostaining and statistics of co-labelled neurons and axonal synapses in the AC, serial sections containing the AC are selected for analysis. […]
Images are took at 20× magnification and montaged together with the same laser settings between the parallel studies. […] For quantification of co-localization, neurons expressing the indicated reporter are counted using only the corresponding color channel. Then, among these cells, the number of neurons co-expressing the marker of interest is counted by the Nikon imaging analysis software (NIS-Elements Viewer 5.21). […] A neuron is positive for a given marker if the corresponding signal is above background fluorescence. The ratio of neurons co-expressing both markers over the total number of cells expressing only the reporter is then calculated. […]

[2] = tested on: KA-induced chronic epileptic mice; assay: Intrahippocampal kainic acid injection-induced chronic epilepsy (TLE) model, seizure monitoring by MMRS; assay type: in vivo, C57BL/6J male mice; details: 650 nL KA (0.3 mg/mL) intrahippocampal, no intervention
Procedure: C57BL/6J male mice (6˜7 weeks old) are anaesthetized with pentobarbital (100 mg/kg), a craniotomy is performed perpendicularly to the […] of the hippocampus (−2.06 mm posterior to the bregma, −1.80 mm to the midline, and −1.60 mm to the dura), and 650 nL KA (0.3 mg/mL) is injected at a speed of 30 nL/min.
Upon recovering from the anesthesia, the mice are monitored for at least an hour for any signs of acute epileptic seizures before being placed back into their cages for routine monitoring. For the mice only injected with KA (FIG. S16), they are monitored for 16 weeks after the KA injection.
The mice are housed separately under a standard 12-h light/dark cycle and stable temperature (23-25° C.) with free access to food and water. Each KA-injected mouse is monitored and recorded 24 h per day using a 360-smart camera for a minimum of three weeks after surgery. […]
The seizures of the mice are evaluated in a blinded manner; the examiners of the video are blind to the history of the mice. […]
After the C57bL/6J male mice (9-10 weeks old) show a stable occurrence of spontaneous recurrent seizures, epileptic mice are randomly divided into two groups (experimental and control). The daily seizure occurrence is recorded for 2 weeks as the pre-treatment baseline for each mouse (FIG. 6). […]

## C=C(C)[C@H]1CN[C@H](C(=O)O)[C@H]1CC(=O)O [KA, Kainic Acid]
[1]
  GFAP+ cells in the right hippocampus after 16 weeks: 748.56±74.88 per mm^2
[2]
  recurrent convulsive seizures of stages 3 to 5 at week 4: 5.2±1.52 seizures per day

Source: patent publication US20240110200A1, “Recombinant AAV Vectors and Gene Therapies for Treating Brain Diseases” (City University of Hong Kong, priority 2022, published 2024)
